Data on one compound can be found in publication PMC9225265, “Functional Analysis of the Plasma Membrane H^+-ATPases of Ustilago maydis” (Journal of Fungi, 2022).

The subject of this assay is T1, plasma membrane H+-ATPases of wild-type FB2 (Pma1 and Pma2).
T1 construct: native enzymes in isolated plasma membrane fraction of wild-type sporidia; both pumps present; vanadate-sensitive ATPase activity
The assay can be described thus: Pi release (Fiske-Subbarow), vanadate-sensitive ATPase activity of plasma membrane fraction, Michaelis-Menten fit. It is filed as biochemical, Mycosarcoma maydis. Conditions: MES pH 6.5, 5 mM MgCl2, 30 °C, ATP regenerating system (phosphoenolpyruvate / pyruvate kinase), NaN3, KNO3, Pma1 and Pma2 together, rounded value for all strains, exact value in figure.

In the case of `Nc1ncnc2c1ncn2[C@@H]1O[C@H](COP(=O)(O)OP(=O)(O)OP(=O)(O)O)[C@@H](O)[C@H]1O` [Mg-ATP], the Km was ~2000 µM.
